Source: publication PMC11901902, “Design, Synthesis, and Cytotoxicity Evaluation of Novel Indolin-2-One Based Molecules on Hepatocellular Carcinoma HepG2 Cells as Protein Kinase Inhibitors” (Molecules, 2025)

Columns and labels:
CDK-4 = target: T1, CDK-4 (Homo sapiens, UniProt P11802); test: Kinase-Glo Plus luminescence kinase inhibition assay, CDK-4; type: biochemical; settings: 10 µM ATP, 30 °C, 40 min; mean ± SEM
T1 construct: purchased BPS Bioscience 79674
Method: (§1) The enzyme inhibition assay for the tested molecules was performed at BPS Bioscience Corporation, San Diego, CA, USA. The following materials served as the enzyme sources, Poly (Glu, Tyr) sodium salt (4:1, Glu:Tyr) (Sigma#P7244) served as the standardized substrate, and the Kinase-Glo Plus Luminescence kinase assay kit (Promega # V3772) was used. […] Glo Plus luminescence kinase assay kits. The assays were performed using Kinase-Glo Plus luminescence (Promega Corporation, Madison, WI, USA).
(§2) The tested molecules 9, 20, and indurbin were diluted to 100 µL in DMSO (10%), and 5 µL of the solution was added to a 50-µL enzyme reaction until the final concentration of DMSO was 1% in all of reactions. The enzymatic reactions were conducted at 30 °C for 40 min. The reaction mixture contained enzyme substrate and respective kinases. After the enzymatic reaction, 50 µL of enzyme-Glo Plus luminescence […] assay solution (Promega) was added to each reaction, and the plate was incubated for 5 min at room temperature. The luminescence signal was measured using a BioTek Synergy 2 microplate reader. The luminescence data were analyzed using the computer software GraphPad Prism. The difference between luminescence intensities in the absence of enzyme (Lut) and in the presence of enzyme (Luc) was defined as 100% activity (Lut − Luc). […] The IC50 value was determined using GraphPad Prism software. […]
(§3) Glo Plus luminescence kinase assay kits were used in these assays. […] The assay measures kinase activity by quantitating the amount of ATP remaining in the solution following kinase reaction. […] After the enzymatic reaction, 50 µL of Kinase-Glo Plus Luminescence kinase assay solution (Promega) was added to each reaction, and the plate was incubated for 5 min at room temperature. The luminescence signal was measured using a BioTek Synergy 2 microplate reader. […] The luminescence data were analyzed using the Graphpad Prism software.

HepG2 cells = test: Annexin-V-FITC/PI apoptosis assay; type: cell-based, human; settings: HepG2, compound at its IC50, 24 h
Method: Then, the cells were washed with PBS and detached by trypsin. The detached cells were collected into a 15-mL centrifuged tube, washed with ice-cold PBS twice, and centrifuged at 1200 rpm for 5 min. A volume of 0.1 mL binding buffer was added to the treated HepG-2 cells, followed by adding 5 μL of annexin V-FITC and 5 μL of 50 μg/mL PI staining reagents. After mixing and reacting at 25 °C for 15 min in the dark, the apoptotic cell percentages were analyzed by a flow cytometer [FACS Calibur flow cytometer (BD Biosciences)] (Table S5).

caspase 3/7 = test: ELISA of caspase 3/7 in treated HepG-2 cells; type: cell-based, human; settings: for increase of caspase 3/7 levels compared with untreated cells: HepG-2, compound at its IC50, 24 h; for Concentration of caspases 3/7: HepG-2, compound at its IC50, ± S.E.M, control 11.90±1.71
Method: HepG2 cells were cultured in RPMI 10% + 5%FBS penicillin/streptomycin and were incubated at a humidity 5% CO2 and maintained at 37 °C. […] HepG2 cells were cultured as a monolayer in T-25 flasks and were seeded to attain 30% confluency prior to treatment. The main 100 mM stock dissolved in DMSO was diluted with the cell culture medium in order to reach the previously determined IC50 concentration of each of the three preparations. After that, HepG2 cells were collected via trypsinization and centrifuged at 10,000 rpm. The pellet was then rinsed with PBS and lysed in RIPA lysis buffer at 4 °C for 45 min, then centrifuged at 14,000 rpm for 20 min to remove the cellular debris. Lysates were then collected and stored at […] for protein determination. The levels of p53, p21, Fas-L, Bax, Bcl-2, and caspase 3/7 were assessed using the human P53 ELISA kit (Catalog No. ABIN6962151), P21 ELISA kit (Catalog No. ABIN6966175), Human Apoptosis Ligand (FAS-L), Bax ELISA kit, Human Factor-Related. Bcl-2 ELISA kit ELISA kit, and caspase3/7 ELISA kit (Elabscience Biotechnology Co., Wuhan, Hubei, China). The procedure of the used kits was done according to the manufacturer’s instructions. Briefly, equal amounts of cell lysates were loaded and then probed with specific antibodies. The samples were measured at 450 nm in ROBONEK P2000 ELISA reader. The analysis was confirmed with three different sets of extracts. All experiments were done in triplicate (Tables S6–S9).

VEGFR-2 = target: T2, VEGFR-2 (Homo sapiens, UniProt P35968); test: Kinase-Glo Plus luminescence kinase inhibition assay, VEGFR-2; type: biochemical; settings: 10 µM ATP, 30 °C, 40 min; mean ± SEM
T2 construct: purchased BPS Bioscience 40301
Method: as §1, §2, §3

T1 sequence (P11802 whole entry): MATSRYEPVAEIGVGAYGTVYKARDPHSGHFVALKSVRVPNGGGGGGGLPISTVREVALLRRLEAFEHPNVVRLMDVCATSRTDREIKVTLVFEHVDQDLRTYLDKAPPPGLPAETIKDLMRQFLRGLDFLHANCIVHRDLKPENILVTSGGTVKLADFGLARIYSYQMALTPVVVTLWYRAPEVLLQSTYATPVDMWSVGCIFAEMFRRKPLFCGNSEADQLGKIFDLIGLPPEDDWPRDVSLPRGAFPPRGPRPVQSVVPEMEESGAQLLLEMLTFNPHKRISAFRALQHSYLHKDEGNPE
T1 sequence (P30281 whole entry partner): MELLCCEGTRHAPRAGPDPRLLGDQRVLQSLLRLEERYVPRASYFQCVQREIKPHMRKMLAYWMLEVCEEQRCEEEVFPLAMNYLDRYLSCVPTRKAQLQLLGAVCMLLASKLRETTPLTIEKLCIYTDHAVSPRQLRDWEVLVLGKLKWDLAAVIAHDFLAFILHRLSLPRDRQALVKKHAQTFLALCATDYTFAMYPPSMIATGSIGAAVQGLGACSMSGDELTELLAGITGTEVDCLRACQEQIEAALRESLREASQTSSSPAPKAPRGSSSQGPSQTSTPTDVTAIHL
T2 sequence (P35968 20-1356): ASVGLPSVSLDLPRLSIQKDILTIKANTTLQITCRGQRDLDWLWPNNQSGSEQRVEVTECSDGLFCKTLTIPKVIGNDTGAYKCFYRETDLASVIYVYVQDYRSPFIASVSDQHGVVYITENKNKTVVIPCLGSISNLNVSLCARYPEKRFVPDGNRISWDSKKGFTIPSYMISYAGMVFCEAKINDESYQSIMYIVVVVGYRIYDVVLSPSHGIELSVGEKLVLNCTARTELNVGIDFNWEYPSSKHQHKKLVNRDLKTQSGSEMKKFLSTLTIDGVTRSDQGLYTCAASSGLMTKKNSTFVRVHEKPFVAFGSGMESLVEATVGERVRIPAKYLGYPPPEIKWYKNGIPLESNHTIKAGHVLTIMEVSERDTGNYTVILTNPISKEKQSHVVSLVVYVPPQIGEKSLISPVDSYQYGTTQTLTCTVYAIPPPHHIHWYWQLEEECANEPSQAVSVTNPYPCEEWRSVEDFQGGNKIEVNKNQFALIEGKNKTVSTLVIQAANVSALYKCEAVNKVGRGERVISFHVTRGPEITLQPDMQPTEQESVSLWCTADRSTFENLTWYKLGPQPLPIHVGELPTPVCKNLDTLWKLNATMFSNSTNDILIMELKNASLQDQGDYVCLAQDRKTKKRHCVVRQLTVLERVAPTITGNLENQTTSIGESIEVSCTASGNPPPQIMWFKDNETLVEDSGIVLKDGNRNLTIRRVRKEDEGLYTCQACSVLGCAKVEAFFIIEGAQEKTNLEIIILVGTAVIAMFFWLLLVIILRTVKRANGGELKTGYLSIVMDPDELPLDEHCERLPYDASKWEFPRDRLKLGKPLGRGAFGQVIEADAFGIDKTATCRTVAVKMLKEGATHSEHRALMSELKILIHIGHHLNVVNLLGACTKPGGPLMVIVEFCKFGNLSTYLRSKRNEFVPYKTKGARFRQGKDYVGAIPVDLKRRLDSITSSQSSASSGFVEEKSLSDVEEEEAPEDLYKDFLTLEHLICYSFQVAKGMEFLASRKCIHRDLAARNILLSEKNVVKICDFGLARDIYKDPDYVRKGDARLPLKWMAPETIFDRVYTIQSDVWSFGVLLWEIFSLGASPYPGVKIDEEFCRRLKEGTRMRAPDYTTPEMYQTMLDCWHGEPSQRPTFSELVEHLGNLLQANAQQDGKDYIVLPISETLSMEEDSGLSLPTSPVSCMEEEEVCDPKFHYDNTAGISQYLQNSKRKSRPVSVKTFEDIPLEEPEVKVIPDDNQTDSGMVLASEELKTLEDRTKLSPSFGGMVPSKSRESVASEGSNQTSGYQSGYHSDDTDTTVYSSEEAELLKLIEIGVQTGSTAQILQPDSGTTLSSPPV

| SMILES | IC50 (CDK-4) | Apoptosis Early (HepG2 cells) | Apoptosis Late (HepG2 cells) | Apoptosis Total (HepG2 cells) | Necrosis (HepG2 cells) | increase of cell population at late apoptosis compared with untreated control (HepG2 cells) | increase of cells in early apoptotic stage compared with untreated control (HepG2 cells) | increase of caspase 3/7 levels compared with untreated cells (caspase 3/7) | Concentration of caspases 3/7 (caspase 3/7) | IC50 (VEGFR-2) |
| --- | --- | --- | --- | --- | --- | --- | --- | --- | --- | --- |
| O=C1Nc2ccc(Cl)cc2C1=Nc1ccc2nc[nH]c(=O)c2c1 [Compound 9, 6-(5-Chloro-2-oxo-1,2-dihydro-indol-3-ylideneamino)-3H-quinazolin-4-one] | 36.4 ± 4.52 nM | 5.05% | 3.72% | 8.77% | 2.69% | around 11 fold | around 6 fold | 5.3 fold | 62.13 ± 5.27 pg/mL | 56.7 ± 4.3 nM |
| O=C1Nc2ccc(Cl)cc2C1=Nc1ccc(-c2nc3ccccc3c(=O)[nH]2)cc1 [Compound 20, 2-[4-(5-Chloro-2-oxo-1,2-dihydro-indol-3-ylideneamino)-phenyl]-3H-quinazolin-4-one] | 244 ± 12.2 nM | 4.91% | 6.75% | 11.66% | 1.91% | ~21 fold | around 6 fold | 3.2 fold | 37.32 ± 4.82 pg/mL | 14.3 ± 2.7 nM |
